Source: patent US20200399642A1, “METHODS AND COMPOSITIONS FOR TREATING AND PREVENTING METASTATIC TUMORS” (IMMUNE PHARMACEUTICALS, INC., priority 2017, published 2020)
Like-named read-outs stand apart in the source and are kept apart here.

Tests used:
[1] = system: ROS production of WT lung cells; details: in vitro, HDC 10-1,000 μmol/L added 5 minutes before WKYMVm
Method: (§2) Superoxide anion production was determined by use of the isoluminol-electrogenerated chemiluminescence technique as described elsewhere. Briefly, single-cell suspensions of lungs were diluted to 10^7 cells/mL in Krebs-Ringer glucose buffer supplemented with isoluminol (10 mg/mL; Sigma-Aldrich) and horseradish peroxidase (HRP, 4 U/mL, Boehringer) and added to 96-well plates that were incubated at 37° C. Phorbol myristate acetate (PMA, 5×10^−8 M, Sigma-Aldrich) or the formyl peptide receptor agonist Trp-Lys-Tyr-Met-Val-D-Met (WKYMVm) (10^−5 M, Tocris Bioscience) were added for induction of ROS production. Light emission was recorded continuously using a FLUOstar Omega plate reader (BMG). In some experiments, HDC (10-1,000 μmol/L, final concentrations) was added 5 minutes prior to the addition of WKYMVm.

B16F10 cells = assay: Lung metastasis after i.v. inoculation of B16F10 melanoma cells; type: in vivo, mouse; details: for number of lung metastases: 3 weeks
Method: (§1) C57BL/6 mice were obtained from The Charles River Laboratories. B6.129S6-Cybb^tm1Din(Nox2^−/− or Nox2-KO) mice that lack the myeloid gp91^phox subunit NOX2 and, thus, a functional ROS-forming NOX2 were obtained from The Jackson Laboratory. […] Naïve C57BL/6, Nox2-KO, and Ifng-KO mice (6-12 weeks of age) were treated intraperitoneally (i.p.) with PBS (control), HDC (Sigma, 1,500 μg/mouse), IL15 (0.04 μg/mouse), alone or combined, on the day before, the day after, and 3 days after intravenous (i.v.) inoculation of B16F10 cells (5×10^4-15×10^4 cells/mouse) or B16F1 cells (20×10^4-30×10^4 cells/mouse). Three weeks after tumor inoculation, mice were euthanized by cervical dislocation followed by harvesting of lungs and spleens. Lung metastasis was determined by counting visible pulmonary metastatic foci under a light microscope. The experimental design is outlined in FIG. 1A.
Gr1^+ cells were depleted by i.p. injections of 400 μg anti-Gr1 antibody (BioXCell, Clone RB6-8C5) 2 days before B16 cell inoculation. […] NK cells were depleted by i.p. injections of 250 μg anti-NK1.1 antibody (BioXCell, Clone PK136) 4 days and 2 days before B16F10 cell inoculation.
Spleens were harvested from WT C57BL/6 mice and single-cell suspensions were prepared. Splenocytes were enriched for NK cells by passage through nylon wool columns (Polysciences). NK cells were then negatively selected using an NK-cell isolation kit II (Miltenyi Biotech) according to the manufacturer's instructions to a purity of >70%. Five million enriched NK cells were injected i.v. 12 hours before inoculation of B16F10 cells. WT NK cells in Ifng^−/− mice were detected 2 days after adoptive transfer by collecting peripheral blood followed by DNA extraction and PCR. The primer pair used for detection of WT Ifng was 5′ […] 3′ (SEQ ID NO:02) and 5′ […] 3′ (SEQ ID NO:03). For detection of the disrupted IFNγ gene (Ifng−/−) the primer pair 5′ […] 3′ (SEQ ID NO:04) and 5′ […] 3′ (SEQ ID NO:05) was used.

B16F1 cells = details: 200,000 cells in WT, 300,000 in Nox2-/- mice; 3 weeks
Method: as §1

NK cells = details: WT mice, 3 weeks after tumor cell inoculation; % of live CD45+ cells
Method: as §1

CD11b+Gr1+ myeloid cells = details: WT mice, HDC 24 hours before B16F10 inoculation
Method: (§3) For assessment of the impact of NOX2 inhibition on immune parameters during the early phase of tumor progression, mice received HDC at 1,500 μg/mouse or PBS (control) 1 day before the inoculation of B16F10 cells followed by dissection of lungs at 30 minutes or 24 hours after tumor cell inoculation as shown in FIG. 2A.
(§4) Lung tissues were dissociated into single cells by combining enzymatic degradation of extracellular matrix with mechanical dissociation using gentle MACS Technology (Miltenyi Biotech) based on instructions provided by the manufacturer.
The following fluorochrome-labeled antimouse mAbs were purchased from BD Biosciences: anti-CD45 (30-F11), anti-CD11c (HL3), anti-IaIe (2G9), anti-CD3 (145-2311), anti-CD4 (RM4-5), anti-CD8 (53-6.7), anti-NK1.1 (PK136), anti-CD19 (1D3), anti-CD11b (M1/70), anti-Gr1 (RB6-8C5), anti-CD40 (3/23), and anti-Ly6C (AL-21). Anti-CD33 (29A1.4) was from Ebiosciences; anti-F4/80 (BM8) and anti-CD69 (H1.2F3) were from BioLegend. LIVE/DEAD Fixable Yellow Dead Cell Stain Kit or DAPI (both from Invitrogen) were used as cell viability markers in flow cytometry analyses. A minimum of 100,000 gated live cells were collected on a four-laser BD LSRFortessa (405, 488, 532, and 640 nm). Data were analyzed using FACSDiva Version 8.0.1 software (BD Biosciences).

[2] = system: ROS formation of lung cell suspensions; details: mice pretreated with HDC the day before B16 inoculation; PMA; 30 minutes and 24 hours
Method: as §3, §4, §2

lung NK cells = assay: IFNγ production ex vivo in cocultures of lung cells and B16 cells (ELISA); design: species or system mouse; details: WT mice treated with HDC in vivo; lungs 30 minutes after B16F10 inoculation; coculture with B16 cells
Method: Mice were pretreated with HDC (1,500 μg) or PBS on the day before i.v. inoculation of B16F10 cells. Thirty minutes after tumor cell inoculation mice were sacrificed and single-cell lung cell suspensions were prepared. Lung cells were cocultured overnight with B16 cells (500,000 cells/mL) in flat bottom 96-well plates at effector:target cell ratios of 1:1 to 50:1. Supernatants were collected after 24 hours and the IFNγ content was determined by ELISA (Mouse IFNγ DuoSet ELISA, R&D Systems).

[3] = system: B-RAF- and K-RAS-induced lung cancer; details: mouse models of B-RAF- and K-RAS-induced lung cancer; cited from earlier work
melanoma = details: other melanoma models; cited from earlier work
[4] = system: xenografted human melanoma cells; details: immunodeficient mice; cited from earlier work
murine melanoma cells = details: in vivo administration; cited from earlier work
[5] = Nox2-KO mice, 150,000 B16F10 cells i.v., i.p. treatment days -1, 1, 3
[6] = WT mice, 100,000 B16F10 cells i.v., i.p. treatment days -1, 1, 3 (HDC 1,500 μg/mouse, IL15 0.04 μg/mouse)

| Compound | ROS formation from WT lung cells [1] | subcutaneous growth of EL-4 thymoma tumors (EL-4 thymoma tumors; Nox2-KO mice) | subcutaneous growth of EL-4 thymoma tumors (EL-4 thymoma tumors; WT mice) | lung metastasis (B16F10 cells; Gr1+-depleted WT mice, B16F10) | antimetastatic efficacy of HDC (B16F10 cells; Ifng-KO mice after adoptive transfer of IFNγ-producing WT NK cells) | antimetastatic efficacy of HDC (B16F10 cells; Ifng-KO mice after adoptive transfer of Ifng-KO NK cells) | melanoma metastasis (B16F10 cells; Ifng-KO mice, B16F10) | number of lung metastases (B16F10 cells; [5]) | number of lung metastases (B16F10 cells; [6]) | melanoma metastasis (B16F10 cells; animals depleted of NK cells (anti-NK1.1), WT and Nox2-/-, B16F10) | lung metastasis formation by B16F1 (B16F1 cells) | NK-cell counts in lungs (NK cells) | degree of influx of myeloid cells into lungs (CD11b+Gr1+ myeloid cells) | ROS formed ex vivo in lung cell suspensions [2] | IFNγ produced ex vivo by lung NK cells (lung NK cells) | tumor progression [3] | lymph node metastasis (melanoma) | metastasis of xenografted human melanoma cells [4] | tumorigenicity of murine melanoma cells (murine melanoma cells) |
| --- | --- | --- | --- | --- | --- | --- | --- | --- | --- | --- | --- | --- | --- | --- | --- | --- | --- | --- | --- |
| Cl.Cl.NCCc1c[nH]cn1 [HDC, histamine dihydrochloride] | dose-dependently suppressed | but not in Nox2-KO mice | reduces the subcutaneous growth | did not affect metastasis | significantly restored the antimetastatic efficacy | but not the transfer of Ifng-KO NK cells | did not reduce melanoma metastasis | not observed | decreased the number of lung metastases | did not inhibit melanoma metastasis | NOX2-dependent, antimetastatic effect | increased NK-cell counts in lungs | did not alter | reduced | higher concentrations of IFNγ |  |  |  |  |
| CC(=O)N[C@@H](CS)C(=O)O [N-acetyl-cysteine] |  |  |  |  |  |  |  |  |  |  |  |  |  |  |  | accelerates tumor progression | enhances lymph node metastasis | accelerates the metastasis | reduces the tumorigenicity |
| IL15: NK cell-activating cytokine IL15 |  |  |  |  |  |  |  | exerted antimetastatic activity | exerted antimetastatic activity |  |  |  |  |  |  |  |  |  |  |
